Experimental data reported in US12679855B2, “Inhibitors of the enzyme enolase for precision oncology” (Board of Regents, The University of Texas System, priority 2019, dated 2026).
Entries after “also recorded” stand apart in the source; their conditions may differ. Read-outs that look alike come from different tables or passages of the source.

Key:
[1] = Plasma levels after IV injection of POMHEX in monkeys; assay type: in vivo, monkey; conditions: after IV POMHEX, monkey 2.5 mg/kg, mouse 10 mg/kg
Protocol: (§1) FIGS. 16A-16C show the ex-vivo half-life of POMHEX in biological fluids limits its clinical utility. […] Lower levels of carboxylesterase in human blood results in a longer half-life of POMHEX. (FIG. 16B) Dramatically higher drug exposure in non-human primates as compared to mice following IV injections of POMHEX. Mice (n=3; pooled) and monkeys (n=3; pooled) were injected IV with POMHEX at 10 mg/kg and 2.5 mg/kg, respectively. […] POMHEX was undetectable (<50 nM) even at the earliest time point, in both monkey and mouse experiments; at 98 nM, POMHEX was detectable 1-minute post-injection, but at no time thereafter. […] HEX and HemiPOMHEX were not measured at concentrations higher than 10 mg/kg due to the hazards associated with the derivatization agent, trimethylsilyl-diazomethane in hexane (TMS-DAM). (FIG. 16C) Schematic of POMHEX in circulation when administered IP or IV in mice. Due to high levels of plasma carboxylesterase, a gradient decrease in POMHEX away from the site of injection is accompanied by a concurrent increase in HemiPOMHEX.

[2] = test system: U343 glioma cell line (ENO1-heterozygously deleted); test: Enolase inhibitor sensitivity (crystal violet), ENO1-heterozygously deleted U343 cells; assay type: cell-based; conditions: DMEM 10% FBS, terminal cell density by crystal violet after 7 days
Protocol: (§2) Enolase inhibitor sensitivity experiments were performed, using DMEM containing 10% FBS cell culture media. IC50 (expressed in nM) were calculated based on terminal cell density measured by crystal violet after 7 days of growth. […] Left table: POMHEX. Middle table: HEX. Right table: Ratio of sensitivity to POMHEX versus HEX for each cell line.
(§3) (FIG. 19A) ENO1-deleted (D423, red), ENO1-isogenically rescued (D423 ENO1, blue), and ENO1-WT (LN319, grey) cells were treated POMHEX in RPMI media under the same experimental conditions used for NCI-60 screening. […] IC50 (expressed in nM) were calculated based on terminal cell density measured by crystal violet.
(§4) Cell proliferation assay.

[3] = test system: D502 glioma cell line (ENO1-heterozygously deleted); test: Enolase inhibitor sensitivity (crystal violet), ENO1-heterozygously deleted D502 cells; assay type: cell-based; conditions: DMEM 10% FBS, terminal cell density by crystal violet after 7 days
Protocol: as §2, §3, §4

[4] = test system: D423 (ENO1-deleted) glioma cells; test: Cell proliferation assay (crystal violet) in ENO1-deleted glioma cells; assay type: cell-based; conditions: for IC50: Glioma cell; for selectivity for ENO1-deleted cells: versus ENO1-rescued (D423 ENO1) and ENO1-intact (LN319) glioma cells
Protocol: Cell culture experiments. Cell culture experiments were conducted using the D423-MG cell line. 1p36 homozygous deletion in D423 includes the genes from CAMTAJ to SLC25A33; this includes ENO1. Isogenic ENO1 ectopically rescued lines were described previously (pCMV ENO1 5X) (Muller et al., 2012, which is incorporated by reference herein). An ENO1-intact cell line (LN319) was used as a control for sensitivity to Enolase inhibitors. Cells were routinely cultured in Dulbecco's modified Eagle's medium supplemented with 10% fetal bovine serum.
Cell proliferation assay. Cell Proliferation was determined by crystal violet staining, as previously described (Leonard et al., 2016 and Satani et al., 2016). The cell lines used were D423 (ENO1-deleted), D423 ENO1 (overexpressing ENO1) and LN319 (control). Glioma cells were seeded in 96-well plates and treated with varying concentrations of the inhibitors described above for 7 days. Cells were then washed with PBS, fixed with 10% formalin and stained with 0.05% crystal violet. Washed and dried plates were dye-extracted using 10% acetic acid, and absorbance was measured at 595 nm using Omegastar Plate Reader (BMG Labtech). To test the efficacy of the synthesized under hypoxic conditions, 1×10^4 cells were plated in 96-well plates, treated with VCY13, VCY15, VCY16, or VCY17 and incubated for 3 days in a hypoxia station (Don Whitley Scientific, Shipley, UK) set at 1% O2 and 5% CO2. Crystal violet staining was then performed as described above.
Additional Biological Data. Pro-drug inhibitor structures and corresponding IC50 values against ENO1-deleted cells are shown below in Table 2. The name and corresponding structures of all synthesized inhibitors are given in left and middle columns of each table. Pro-drug moieties in blue represent a second pro-drug leave group while those in red represent a first pro-drug leave group. Some inhibitors also contain an acetyl-protected hydroxamate, which is also a biologically labile moiety. ENO1-deleted (D423), ENO1-isogenically rescued (D423 ENO1), and ENO1-WT (LN319) cells were treated with either pro-drug inhibitor for 5 days at 21% O2, unless otherwise specified. […] IC50,D423 values at 21% O2 are given in the right columns of each table. Experiments conducted at 1% O2 (hypoxic) or 70% O2 (hyperoxic) conditions are noted, where appropriate.

[5] = Plasma and organ levels after injection of POMHEX in mice; assay type: in vivo, mouse; conditions: 24 hrs. after a single intravenous injection of 10 mg/kg POMHEX
Protocol: FIGS. 3A-3D show the ex-vivo half-life of POMHEX in biological fluids may limit its clinical utility. (FIG. 3A) Ex-vivo half-life of POMHEX in biological fluids. POMHEX has a half-life of ~30 seconds in mouse plasma. The degradation may be prevented by heat inactivation or de-proteinatization with acetonitrile. […] (FIG. 3B) Plasma concentration of HEX and HemiPOMHEX following a single intravenous injection of POMHEX, as a function of time. Mice were injected IV with 10 mg/kg POMHEX and sacrificed at the indicated time points. Each data point represents a single animal. Note, POMHEX itself was below the detection limit (100 nM) even at the earliest time point. It is believed that this may not be reflective of the physiological state as separation of plasma from hematocrit is required for the measurements, which adds approximately 6 minutes of processing time during which POMHEX may be degraded to HemiPOMHEX. (FIG. 3C) The results of the same experiment but performed with an intraperitoneal injection of POMHEX, at a dose of 40 mg/kg. (FIG. 3D) Quantification of POMHEX and its metabolites in mouse organs 24 hrs. after a single intravenous injection of 10 mg/kg POMHEX.
as §1, with “Due to high levels of plasma carboxylesterase, a gradient decrease in POMHEX away from the site of injection is accompanied by a concurrent increase in HemiPOMHEX.” left out

[6] = nitroimidazole in VCY17, nitrofuran in VCY15; cited from earlier work
[7] = 120 h, ENO1-deleted (D423) cells, 5 days, 21% O2, read-out: IC50,D423
[8] = D423 cells, 1% O2 (hypoxic), read-out: IC50,D423 at 1% O2
[9] = 120 h, 21% O2, 5 days where stated, read-out: IC50 against D423 (ENO1-deleted) cells

For `O=C1C(P(=O)(O)O)CCCN1O` (stereo not shown) [HEX], the “half-life in monkey compared to mouse” value [1] was “longer in monkey”, the IC50 [2] was 19700 nM and the IC50 [3] was 28800 nM.
`CC(C)(C)C(=O)OCOP(=O)(NCc1ccc(F)cc1F)C1CCCN(O)C1=O` (stereo not shown) [CDP14, ((((2,4-difluorobenzyl)amino)(1-hydroxy-2-oxopiperidin-3-yl)phosphoryl)oxy)methyl pivalate] gave an IC50 [4, 7] of 65 nM.
In the case of `CC(C)(C)C(=O)OCOP(=O)(O)C1CCCN(O)C1=O` (stereo not shown) [HemiPOMHEX], the “half-life in monkey compared to mouse” value [1] is reported as “longer in monkey” and the “level in mouse organs” value [5] is reported as “below the quantification limit (BQL)”.
In the case of `CC(=O)ON1CCCC(P(=O)(NCc2ccc(F)cc2)OCc2ccc([N+](=O)[O-])o2)C1=O` (stereo not shown) [VCY22, 3-(((4-fluorobenzyl)amino)((5-nitrofuran-2-yl)methoxy)phosphoryl)-2-oxopiperidin-1-yl acetate], the IC50 [4, 7] is reported as 933 nM and the IC50 [4, 8] is reported as 540 nM.
`CC(C)(C)C(=O)OCOP(=O)(NCc1ccccn1)C1CCCN(O)C1=O` (stereo not shown) [KY9, (((1-hydroxy-2-oxopiperidin-3-yl)((pyridin-2-ylmethyl)amino)phosphoryl)oxy)methyl pivalate] gave an IC50 [4, 7] of 96 nM.
Work on `N#CCCOP(=O)(NCc1ccccc1)C1CCCN(O)C1=O` (stereo not shown) [VCY26] yielded an IC50 [4, 7] of 5000 nM.
With `CC(C)(C)C(=O)OCOP(=O)(NCc1ccc(F)c(F)c1)C1CCCN(O)C1=O` (stereo not shown) [CDP13, ((((3,4-difluorobenzyl)amino)(1-hydroxy-2-oxopiperidin-3-yl)phosphoryl)oxy)methyl pivalate] the IC50 [4, 7] was 221 nM.
With `CC(C)(C)C(=O)OCOP(=O)(NCc1ccc(F)cc1)C1CCCN(O)C1=O` (stereo not shown) [VCY19, ((((4-fluorobenzyl)amino)(1-hydroxy-2-oxopiperidin-3-yl)phosphoryl)oxy)methyl pivalate] the IC50 [4, 7] was 129 nM.
With `CC(=O)ON1CCCC(P(=O)(NCc2ccccc2)OCc2ccc([N+](=O)[O-])s2)C1=O` (stereo not shown) [VCY16, 3-((benzylamino)((5-nitrothiophen-2-yl)methoxy)phosphoryl)-2-oxopiperidin-1-yl acetate] the IC50 [4, 7] was 234 nM and the IC50 [4, 8] was 40 nM.
`CC(C)(C)C(=O)OCOP(=O)(NCc1c(F)cccc1F)C1CCCN(O)C1=O` (stereo not shown) [CDP19, ((((2,6-difluorobenzyl)amino)(1-hydroxy-2-oxopiperidin-3-yl)phosphoryl)oxy)methyl pivalate] showed an IC50 [4, 7] of 112 nM.
In the case of `CC(C)(C)C(=O)OCOP(=O)(NCc1cccc(F)c1)C1CCCN(O)C1=O` (stereo not shown) [CDP12, ((((3-fluorobenzyl)amino)(1-hydroxy-2-oxopiperidin-3-yl)phosphoryl)oxy)methyl pivalate], the IC50 [4, 7] is reported as 249 nM.
In the case of `O=C1C(P(=O)(NCc2ccccc2)OCOC(=O)N2CCC(N3CCCCC3)CC2)CCCN1O` (stereo not shown) [CDP9], the IC50 [4, 7] is reported as 36000 nM.
In the case of `CC(=O)ON1CCCC(P(=O)(NCc2ccccc2)OCc2ccc([N+](=O)[O-])o2)C1=O` (stereo not shown) [VCY15, 3-((benzylamino)((S-nitrofuran-2-yl)methoxy)phosphoryl)-2-oxopiperidin-1-yl acetate], the “redox potential of the nitroheterocycle” value [6] is given as −330 mV, the IC50 [4, 9] is given as 230 nM and the IC50 [4, 7] is given as 390 nM. The IC50 [4, 8] was 97 nM, the “difference in bioactivation from 21% to 1% O2” value ([4]; taking into account HIF-1α/hypoxia-driven increase in ENO2 expression) was ~ 5 fold and the “selectivity for ENO1-deleted cells” value [4] was “selective toxicity against ENO1-deleted”.
In the case of `CC(C)(C)C(=O)OCOP(=O)(NCC1CC1)C1CCCN(O)C1=O` (stereo not shown) [VCY32, ((((Cyclopropylmethyl)amino)(1-hydroxy-2-oxopiperidin-3-yl)phosphoryl)oxy)methyl pivalate], the IC50 [4, 7] is reported as 9 nM and the “selectivity for ENO1-deleted cells” value [4] is reported as “selective for ENO1-deleted cells”.
With `CC(=O)ON1CCCC(P(=O)(NCc2ccccc2)OCCSC(=O)C(C)(C)C)C1=O` (stereo not shown) [VCY13, 3-((benzylamino)(2-(pivaloylthio)ethoxy)phosphoryl)-2-oxopiperidin-1-yl acetate] the IC50 [4, 9] was 38 nM, the IC50 [4, 7] was 38 nM and the “selectivity for ENO1-deleted cells” value [4] was “selective toxicity against ENO1-deleted; also recorded: dose-dependent selectivity for ENO1-deleted cells”.
With `CC(C)(C)C(=O)OCOP(=O)(NCC1CCCCC1)C1CCCN(O)C1=O` (stereo not shown) [CDP18, ((((Cyclohexylmethyl)amino)(1-hydroxy-2-oxopiperidin-3-yl)phosphoryl)oxy)methyl pivalate] the “greater potency compared to benzylamine pro-drug (FLM37)” value ([4]; D423 cells) was ~ 3 fold, the IC50 [4, 9] was 77 nM and the IC50 [4, 7] was 77 nM.
